From patent US6890736B1, “Methods for producing proteins in cultured cells” (Immunex Corporation, priority 2002, dated 2005)

Legend:
Format in all cases: cell-based, Chinese hamster
[1] = Example 1: cell number (hemocytometer) and viability (trypan blue); settings: Chinese hamster; for viability at 0 day, 1 μM / viability at 3 day, 1 μM / viability at 5 day, 1 μM / viability at 7 day, 1 μM / viability at 10 day, 1 μM: 1 μM decitabine; for viability at 0 day, 1 μM / viability at 0 day, 5 μM / viability at 0 day, 10 μM: day 0; for viability at 3 day, 1 μM / viability at 3 day, 5 μM / viability at 3 day, 10 μM: day 3; for viability at 5 day, 1 μM / viability at 5 day, 5 μM / viability at 5 day, 10 μM: day 5; for viability at 7 day, 1 μM / viability at 7 day, 5 μM / viability at 7 day, 10 μM: day 7; for viability at 0 day, 5 μM / viability at 3 day, 5 μM / viability at 5 day, 5 μM / viability at 7 day, 5 μM / viability at 10 day, 5 μM: 5 μM decitabine
Description: (§1) The following experiment was designed to test whether decitabine can induce the production of a protein, in this case a recombinant soluble form of the human interleukin 1 receptor type II (IL-1-R-II), at either 31° C. or 34° C. Soluble versions of IL-1R-II and methods for producing it are described in U.S. Pat. No. 5,767,064. DNA encoding a soluble form of the human IL-1R-II was inserted into pG3.6, which is described in Morris et al. ((1998), Cytotechnology 28:9-17). This construct was used to transfect CHO cells to produce cell lines, including 25H9, that produce IL-1R-II protein.
(§2) About 2×10^6 cells of cell line 25H9 were inoculated into 30 milliliters of serum-free medium and incubated at the temperatures indicated in Table 1 in vented shake flasks. At the times indicated in Table 1, samples were taken from each flask to determine IL-1R-II titer, cell number, and cell viability. IL-1R-II protein titer was determined by ELISA assay. Cell number was determined by counting cells in a hemocytometer. Cell viability was determined by trypan blue staining and counting stained cells in a hemocytometer. Cumulative viable cell density (CVCD) is the area under the curve of a plot of the viable cell density versus time (in units of cells/ml/day). Productivity (pg of IL-1R-II/cell/day) was determined by dividing the protein titer on a particular day by the CVCD on the same day. Cells were fed with amino acids on days 2 and 5, and dextrose was added periodically in order to maintain levels above 2.0 g/L. All samples were done in duplicate, and the data shown is an average value.

[2] = tested on: cell line 25H9 (CHO cells); assay: as above
Description: as §1, §2

[3] = tested on: cell line 25H9 (CHO cells that produce IL-1R-II protein); assay: Example 3: induction with 5-bromo-2′-deoxycytidine 5′-monophosphate, IL-1R-II production; settings: 31° C., 10 μM
Description: as §2
The following experiment compares the effects of 5-bromo-2′-deoxycytidine 5′-monophosphate and 5-aza-2′-deoxycytidine on induction of protein production. The experiment was done as described in Example 1 with the following exceptions. All cultures were incubated at 31° C., and cell number and viability were determined using a Guava PCA Cytometer (available from Guava Technologies, Hayward, Calif., USA). Samples were done in triplicate.

[4] = 31° C., 10 μM decitabine, day 10
[5] = 31° C., 1 μM decitabine, day 10
[6] = 31° C., 5 μM decitabine, day 10
[7] = 31° C., 10 μM decitabine, day 0
[8] = 31° C., 10 μM decitabine, day 3
[9] = 31° C., 10 μM decitabine, day 5
[10] = 31° C., 10 μM decitabine, day 7
[11] = 34° C., 1 μM decitabine, day 10
[12] = 34° C., 5 μM decitabine, day 10
[13] = 34° C., 10 μM decitabine, day 0
[14] = 34° C., 10 μM decitabine, day 3
[15] = 34° C., 10 μM decitabine, day 5
[16] = 34° C., 10 μM decitabine, day 7

SMILES: Nc1ncn([C@H]2C[C@H](O)[C@@H](CO)O2)c(=O)n1 [decitabine, 5-aza-2′-deoxycytidine]
- viability at 0 day, 1 μM ([1]; 31° C.): 96.1%
- viability at 3 day, 1 μM ([1]; 31° C.): 93.4%
- viability at 5 day, 1 μM ([1]; 31° C.): 94.8%
- viability at 7 day, 1 μM ([1]; 31° C.): 87.7%
- viability at 10 day, 1 μM ([1]; 31° C., day 10): 63.9%
- viability at 0 day, 5 μM ([1]; 31° C.): 96.1%
- viability at 3 day, 5 μM ([1]; 31° C.): 93.6%
- viability at 5 day, 5 μM ([1]; 31° C.): 84.6%
- viability at 7 day, 5 μM ([1]; 31° C.): 77.7%
- viability at 10 day, 5 μM ([1]; 31° C., day 10): 58.5%
- viability at 0 day, 10 μM ([1]; 31° C., 10 μM decitabine): 96.1%
- viability at 3 day, 10 μM ([1]; 31° C., 10 μM decitabine): 94.5%
- viability at 5 day, 10 μM ([1]; 31° C., 10 μM decitabine): 80.8%
- viability at 7 day, 10 μM ([1]; 31° C., 10 μM decitabine): 72.5%
- viability at 10 day, 10 μM [1, 4]: 50.6%
- viability at 0 day, 1 μM ([1]; 34° C.): 96.1%
- viability at 3 day, 1 μM ([1]; 34° C.): 93.6%
- viability at 5 day, 1 μM ([1]; 34° C.): 91.5%
- viability at 7 day, 1 μM ([1]; 34° C.): 55%
- viability at 10 day, 1 μM ([1]; 34° C., day 10): 21.4%
- viability at 0 day, 5 μM ([1]; 34° C.): 96.1%
- viability at 3 day, 5 μM ([1]; 34° C.): 96.1%
- viability at 5 day, 5 μM ([1]; 34° C.): 80.3%
- viability at 7 day, 5 μM ([1]; 34° C.): 62.7%
- viability at 10 day, 5 μM ([1]; 34° C., day 10): 33.3%
- viability at 0 day, 10 μM ([1]; 34° C., 10 μM decitabine): 96.1%
- viability at 3 day, 10 μM ([1]; 34° C., 10 μM decitabine): 93.6%
- viability at 5 day, 10 μM ([1]; 34° C., 10 μM decitabine): 75.3%
- viability at 7 day, 10 μM ([1]; 34° C., 10 μM decitabine): 43.9%
- Cumulative Viable Cell Density ([2]; 31° C., 1 μM decitabine, day 0): 0 mL⁻¹ day⁻¹
- Viable Cell Density ([2]; 31° C., 1 μM decitabine, day 0): 1.8e+06 mL⁻¹
- Cumulative Viable Cell Density ([2]; 31° C., 1 μM decitabine, day 3): 8.3e+06 mL⁻¹ day⁻¹
- Viable Cell Density ([2]; 31° C., 1 μM decitabine, day 3): 3.7e+06 mL⁻¹
- Cumulative Viable Cell Density ([2]; 31° C., 1 μM decitabine, day 5): 1.7e+07 mL⁻¹ day⁻¹
- Viable Cell Density ([2]; 31° C., 1 μM decitabine, day 5): 5e+06 mL⁻¹
- Cumulative Viable Cell Density ([2]; 31° C., 1 μM decitabine, day 7): 2.77e+07 mL⁻¹ day⁻¹
- Viable Cell Density ([2]; 31° C., 1 μM decitabine, day 7): 5.7e+06 mL⁻¹
- Cumulative Viable Cell Density [2, 5]: 4.38e+07 mL⁻¹ day⁻¹
- Viable Cell Density [2, 5]: 5.1e+06 mL⁻¹
- Cumulative Viable Cell Density ([2]; 31° C., 5 μM decitabine, day 0): 0 mL⁻¹ day⁻¹
- Viable Cell Density ([2]; 31° C., 5 μM decitabine, day 0): 1.8e+06 mL⁻¹
- Cumulative Viable Cell Density ([2]; 31° C., 5 μM decitabine, day 3): 8.5e+06 mL⁻¹ day⁻¹
- Viable Cell Density ([2]; 31° C., 5 μM decitabine, day 3): 3.8e+06 mL⁻¹
- Cumulative Viable Cell Density ([2]; 31° C., 5 μM decitabine, day 5): 1.57e+07 mL⁻¹ day⁻¹
- Viable Cell Density ([2]; 31° C., 5 μM decitabine, day 5): 3.5e+06 mL⁻¹
- Cumulative Viable Cell Density ([2]; 31° C., 5 μM decitabine, day 7): 2.28e+07 mL⁻¹ day⁻¹
- Viable Cell Density ([2]; 31° C., 5 μM decitabine, day 7): 3.6e+06 mL⁻¹
- Cumulative Viable Cell Density [2, 6]: 4e+07 mL⁻¹ day⁻¹
- Viable Cell Density [2, 6]: 7.8e+06 mL⁻¹
- Cumulative Viable Cell Density [2, 7]: 0 mL⁻¹ day⁻¹
- Viable Cell Density [2, 7]: 1.8e+06 mL⁻¹
- Cumulative Viable Cell Density [2, 8]: 7.4e+06 mL⁻¹ day⁻¹
- Viable Cell Density [2, 8]: 3.1e+06 mL⁻¹
- Cumulative Viable Cell Density [2, 9]: 1.44e+07 mL⁻¹ day⁻¹
- Viable Cell Density [2, 9]: 3.9e+06 mL⁻¹
- Cumulative Viable Cell Density [2, 10]: 2.15e+07 mL⁻¹ day⁻¹
- Viable Cell Density [2, 10]: 3.3e+06 mL⁻¹
- Cumulative Viable Cell Density [2, 4]: 3.18e+07 mL⁻¹ day⁻¹
- Viable Cell Density [2, 4]: 3.6e+06 mL⁻¹
- Cumulative Viable Cell Density ([2]; 34° C., 1 μM decitabine, day 0): 0 mL⁻¹ day⁻¹
- Viable Cell Density ([2]; 34° C., 1 μM decitabine, day 0): 1.8e+06 mL⁻¹
- Cumulative Viable Cell Density ([2]; 34° C., 1 μM decitabine, day 3): 1.14e+07 mL⁻¹ day⁻¹
- Viable Cell Density ([2]; 34° C., 1 μM decitabine, day 3): 5.7e+06 mL⁻¹
- Cumulative Viable Cell Density ([2]; 34° C., 1 μM decitabine, day 5): 2.55e+07 mL⁻¹ day⁻¹
- Viable Cell Density ([2]; 34° C., 1 μM decitabine, day 5): 8.4e+06 mL⁻¹
- Cumulative Viable Cell Density ([2]; 34° C., 1 μM decitabine, day 7): 4.15e+07 mL⁻¹ day⁻¹
- Viable Cell Density ([2]; 34° C., 1 μM decitabine, day 7): 7.6e+06 mL⁻¹
- Cumulative Viable Cell Density [2, 11]: 5.69e+07 mL⁻¹ day⁻¹
- Viable Cell Density [2, 11]: 2.7e+06 mL⁻¹
- Cumulative Viable Cell Density ([2]; 34° C., 5 μM decitabine, day 0): 0 mL⁻¹ day⁻¹
- Viable Cell Density ([2]; 34° C., 5 μM decitabine, day 0): 1.8e+06 mL⁻¹
- Cumulative Viable Cell Density ([2]; 34° C., 5 μM decitabine, day 3): 1.16e+07 mL⁻¹ day⁻¹
- Viable Cell Density ([2]; 34° C., 5 μM decitabine, day 3): 5.9e+06 mL⁻¹
- Cumulative Viable Cell Density ([2]; 34° C., 5 μM decitabine, day 5): 2.47e+07 mL⁻¹ day⁻¹
- Viable Cell Density ([2]; 34° C., 5 μM decitabine, day 5): 7.2e+06 mL⁻¹
- Cumulative Viable Cell Density ([2]; 34° C., 5 μM decitabine, day 7): 3.81e+07 mL⁻¹ day⁻¹
- Viable Cell Density ([2]; 34° C., 5 μM decitabine, day 7): 6.3e+06 mL⁻¹
- Cumulative Viable Cell Density [2, 12]: 5.27e+07 mL⁻¹ day⁻¹
- Viable Cell Density [2, 12]: 3.4e+06 mL⁻¹
- Cumulative Viable Cell Density [2, 13]: 0 mL⁻¹ day⁻¹
- Viable Cell Density [2, 13]: 1.8e+06 mL⁻¹
- Cumulative Viable Cell Density [2, 14]: 9.8e+06 mL⁻¹ day⁻¹
- Viable Cell Density [2, 14]: 4.7e+06 mL⁻¹
- Cumulative Viable Cell Density [2, 15]: 1.93e+07 mL⁻¹ day⁻¹
- Viable Cell Density [2, 15]: 4.8e+06 mL⁻¹
- Cumulative Viable Cell Density [2, 16]: 2.73e+07 mL⁻¹ day⁻¹
- Viable Cell Density [2, 16]: 3.2e+06 mL⁻¹
- Titer of IL-1R-II ([3]; day 0): 0.0 mg/L
- Productivity ([3]; day 2): 12.2 pg of IL-1RII/cell/day
- Titer of IL-1R-II ([3]; day 2): 58.5 mg/L
- Productivity ([3]; day 5): 13.3 pg of IL-1RII/cell/day
- Titer of IL-1R-II ([3]; day 5): 148.5 mg/L
- Productivity ([3]; day 7): 14.1 pg of IL-1RII/cell/day
- Titer of IL-1R-II ([3]; day 7): 197.5 mg/L
- Productivity ([3]; day 9): 14.9 pg of IL-1RII/cell/day
- Titer of IL-1R-II ([3]; day 9): 238.4 mg/L
